Assays:
[1] = test system: S. aureus; test: Multi-challenge method, S. aureus decay (non-linear regression analysis); type: cell-based
Protocol: To represent the worst reasonable case of contamination that may occur in practice during the repeated use of a multi-dose presentation, WHO requires safety testing with deliberate exposure to multiple contamination events using bacterial strains, Pseudomonas Aeruginosa (“PA”), Staphylococcus Aureus (“SA”), Escherichia coli (“EC”) and Bacillus subtilis (“BA”). Formulations are spiked with 5×10^3 CFU/ml of each organism at times 0, 6 hours, 24 hours, 7 days and 14 days after initial challenge and stored either at 2-8° C. or at 22-24° C. to mimic the potential storage conditions in practice.
To assess the appropriateness of WHO multi-dose Open Vial Policy of vaccines in multiple immunization sessions for up to maximum of four weeks, experimental design provided by WHO was implemented. In this study, the effectiveness of Thimerosal was evaluated at the concentration that is present in the majority of U.S. licensed vaccines (0.01%), as well as at a higher concentration of 0.02%. To represent the worst reasonable case of contamination that may occur in practice during the repeated use of a multi-dose presentation, and to test WHO requirements, Prev(e)nar 13 vaccine formulations with 0.01 or 0.02% Thimerosal or with 5.0 mg/dose of 2-PE were deliberately exposed to multiple contamination events using WHO recommended bacterial strains, P. aeruginosa, S. aureus, E. coli and B. subtilis. Formulations were spiked with 5×10^3 CFU/ml of each organism at times 0, 6 hours, 24 hours, 7 days and 14 days after initial challenge and stored either at 2-8° C. or at 22-24° C. to mimic the potential storage conditions in practice. Saline formulation containing 0.02% Thimerosal was also used as a control to evaluate the potential impact of Prev(e)nar 13 on the antimicrobial efficacy of Thimerosal in the formulation.
As shown in the non-linear regression analysis of decay in the viability of S. aureus is summarized in FIG. 12, the rate of decay of S. aureus was substantially slower ([…], with 50% decay in 30.28 days) when formulation was stored at 2-8° C. compared to that stored at 22-24° C. (−1.39 log10 decay per day, with 50% decay in 6.2 days) (FIG. 12).

[2] = test system: Staphylococcus aureus, Pseudomonas aeruginosa, Candida albicans, Aspergillus niger; test: Preservative effectiveness test, single challenge, all challenge organisms (pharmacopeial acceptance criteria); type: cell-based; details: for preservative effectiveness after storage: 2-PE at 3.5 to 5.0 mg/dose
Text: For ascertaining preservative levels according to U.S. and European Pharmacopeias (USP and EP, respectively), the vaccine formation is inoculated once with approximately 10^5 to 10^6 CFU/ml at time 0 (CFU=colony forming units) of:
USP 29 NF 24 Supplement 2 (USP) requires that, after an inoculation of bacterial micro-organism(s), there is at least 1.0 log reduction from the initial calculated count (i.e., at time of inoculation) at 7 days, at least 3.0 log reduction at 14 days from the previous value measured, and no increase at 28 days compared to the previous value measured. For yeast and fungi, the USP requirement is for there to be no increase from time of inoculation at 7, 14 and 28 days.
EP requirements are more stringent. EP 5th Edition 5.6 (5.1.3) requirements for parenteral and ophthalmic preparations has two components: Category A and Category B. Category A (EP-A) requires, for bacteria, at least 2.0 log reduction from the initial calculated count at 6 hours after inoculation, at least 3.0 log reduction from the previous value measured at 24 hours and no recovery at 28 days. Category B (EP-B) requires, for bacteria, at least 1.0 log reduction from the initial calculated count at 24 hours, at least 3.0 log reduction at 7 days from the previous value measured and not more than 0.5 log increase from the previous value measured (i.e., no increase) at 28 days. For yeast and fungi, Category A requires at least 2.0 log reduction at 7 days from the initial calculated count, and no increase at 28 days from the previous measured value; and Category B requires at least 1.0 log reduction from the initial calculated count at 14 days and no increase at 28 days from the previous measured value.
Thirty milliliters (ml) of each vaccine formulation with and without Thimerosal or 2-PE at indicated concentrations or saline containing Thimerosal at 0.02% were inoculated in triplicates with a suspension of each test organism to achieve an inoculum density of approximately 10^5 to 10^6 CFU/ml at time 0 (CFU=colony forming units). […] Samples were mixed to ensure even distribution of challenged organisms. Another 30 ml of vaccine in triplicate (with and without preservative) were used as a negative control and spiked with the culture media alone to evaluate the inherent contamination that might be present in the sample or media. Each of the three series of vaccines, and positive and negative controls, was then separately incubated at 20 to 25° C. Aliquots (1 ml) of the challenged samples and controls (or their appropriate serial ten fold dilutions) were enumerated by plate count in duplicates at time 0 and at intervals of 6 hours, 24 hours, 7 days, 14 days and 28 days post-inoculation.
USP 29 NF 24 Supplement 2 (USP) requires that, after an inoculation of bacterial micro-organism(s), there is at least 1.0 log reduction from the initial calculated count (i.e., at time of inoculation) at 7 days, at least 3.0 log reduction at 14 days from the previous value measured and no increase at 28 days from the previous measured value. For yeast and fungi, the USP requirement is for there to be no increase from the time of inoculation to 7, 14 and 28 days.
EP requirements are more stringent. EP 5th Edition 5.6 (5.1.3) requirements for parenteral and ophthalmic preparations has two components: Category A and Category B. Category A (EP-A) requires, for bacteria, at least 2.0 log reduction from the initial calculated count at 6 hours after inoculation, at least 3.0 log reduction at 24 hours from the previous measured value, and no recovery at 28 days. Category B (EP-B) requires, for bacteria, at least 1.0 log reduction at 24 hours from the initial calculated count, at least 3.0 log reduction at 7 days from the previous value measured and not more than 0.5 log increase at 28 days from the previous value measured (i.e., no increase).

[3] = 2-PE at 2.5 mg/dose, single challenge
[4] = 0.01% Thimerosal in Prev(e)nar 13, stored at 2-8° C.
[5] = 0.01% Thimerosal in Prev(e)nar 13, stored at 22-24° C.
[6] = Thimerosal at 0.01% in Prev(e)nar 13 vaccine formulation, single challenge
[7] = Thimerosal at 0.02% (50 μg mercury per dose), single challenge
[8] = Thimerosal at 0.04% (100 μg mercury per dose), single challenge

SMILES: OCCOc1ccccc1 [2-PE, 2-phenoxyethanol]
- inactivation of S. aureus viability compared with Thimerosal ([1]; 5 mg/dose of 2-PE in Prev(e)nar 13, single or multiple challenge, either storage temperature): stronger
- rate of S. aureus decay (50% decay and average slope) compared with Thimerosal ([1]; vaccine formulations with 2-PE, non-linear regression analysis): faster
- EP-A anti-microbial effectiveness acceptance criteria [2]: met
- EP-B anti-microbial effectiveness acceptance criteria [2]: met
- EP acceptance criteria A [2, 3]: failed
- EP acceptance criteria B [2, 3]: failed
- preservative acceptance criteria EP-B ([2]; 2-PE at 3.5 mg/dose, single challenge): meet
- preservative acceptance criteria EP-B ([2]; 2-PE at 5 mg/dose, single challenge): meet
- preservative effectiveness after storage ([2]; formulations stored at 2-8° C. for two and a half years): remained persistent
- preservative effectiveness after storage ([2]; formulations stored at 37° C. for a month): remained persistent
- EP acceptance criteria B ([2]; 2-PE at concentrations of 3.5 to 5.5 mg/dose, single challenge): met
- effectiveness as a preservative compared with Thimerosal ([2]; Prev(e)nar 13 formulation, single challenge): more effective

SMILES: C[CH2][Hg][S]c1ccccc1C(=O)[O-].[Na+] [Thimerosal]
- reduction of S. aureus ([1]; 0.01% Thimerosal in Prev(e)nar 13, multiple challenges, particularly at 2-8° C.): slow
- rate of decay of S. aureus [1, 4]: −5.98 log10 decay per day
- time to 50% decay of S. aureus [1, 4]: 30.28 days
- rate of decay of S. aureus [1, 5]: −1.39 log10 decay per day
- time to 50% decay of S. aureus [1, 5]: 6.2 days
- rate of decay of S. aureus in saline formulation versus vaccine formulation ([1]; 0.02% Thimerosal, multiple challenges): more pronounced
- contamination levels of all four inoculated micro-organisms ([2]; 0.01% Thimerosal in Prev(e)nar 13, single challenge, 20-25° C., 28 days): reduced
- European acceptance criteria EP-A [2, 6]: did not meet
- European acceptance criteria EP-B [2, 6]: did not meet
- acceptance limits established by the Japanese Pharmacopoeia [2, 6]: did pass
- acceptance limits established by the U.S. Pharmacopoeia [2, 6]: did pass
- EP acceptance criteria A [2, 7]: not
- EP acceptance criteria B [2, 7]: met
- EP acceptance criteria A [2, 8]: not
- EP acceptance criteria B [2, 8]: met

Source: patent US9095567B2, “Vaccine formulations” (priority 2010, dated 2015)
